According to patent US20170159101A1, “DRUG-RESISTANT P97 ATPASE MUTATIONS” (Cleave Biosciences, Inc., priority 2014, published 2017):

Assays:
[1] = test system: Hct116 resistant cell line clone #1 (p97 D649N); test: GI50 fold-change, resistant clone #1 vs parental; type: cell-based, human; details: Clone #1, Hct116, resistance generated with compound 2, G1945A / D649N; 72 hrs
Method: (§1) Dose titration of test compounds were conducted in Hct116, DLD-1, or LoVo cell lines. In brief, cells were plated in 384-well plates and a selected candidate drug compound was added in a 10-point 2-fold serial dilution.

[2] = test system: Hct116 resistant cell line clone #22 (p97 N660D); test: GI50 fold-change, resistant clone #22 vs parental; type: cell-based, human; details: Clone #22, Hct116, resistance generated with compound 4, A1978G / N660D; 72 hrs
Method: as §1

[3] = test system: Hct116 resistant cell line clone #29 (p97 N660K); test: GI50 fold-change, resistant clone #29 vs parental; type: cell-based, human; details: Clone #29, Hct116, resistance generated with compound 4, C1980A / N660K; 72 hrs
Method: as §1

[4] = test system: Hct116 resistant cell line clone #30 (p97 F516L); test: GI50 fold-change, resistant clone #30 vs parental; type: cell-based, human; details: Clone #30, Hct116, resistance generated with compound 4, T1546C / F516L; 72 hrs
Method: as §1

[5] = test system: Hct116 resistant cell line clone #8 (p97 N660D); test: GI50 fold-change, resistant clone #8 vs parental; type: cell-based, human; details: Clone #8, Hct116, resistance generated with compound 3, A1978G / N660D; 72 hrs
Method: as §1

[6] = test system: Hct116 resistant cell line clone #5 (p97 D649A); details: Clone #5, Hct116, resistance generated with compound 2, A1946C / D649A; 72 hrs
[7] = test system: Hct116 resistant cell line clone #31 (p97 C535Y); test: GI50 fold-change, resistant clone #31 vs parental; type: cell-based, human; details: Clone #31, Hct116, resistance generated with compound 4, G1604A / C535Y; 72 hrs
Method: as §1

[8] = test system: Hct116 resistant cell line clone #139 (p97 P472S); test: GI50 fold-change, resistant clone #139 vs parental; type: cell-based, human; details: Clone #139, Hct116, resistance generated with compound 4, C1414T / P472S; 72 hrs
Method: as §1

[9] = test system: Hct116 resistant cell line clone #180 (p97 A569T); test: GI50 fold-change, resistant clone #180 vs parental; type: cell-based, human; details: Clone #180, Hct116, resistance generated with compound 4, G1705A / A569T; 72 hrs
Method: as §1

[10] = test system: Hct116 resistant cell line clone #34 (p97 E470D/E); test: GI50 fold-change, resistant clone #34 vs parental; type: cell-based, human; details: Clone #34, Hct116, resistance generated with compound 4, G1410T/G / E470D/E; 72 hrs
Method: as §1

[11] = test system: DLD-1 resistant cell line clone #64 (p97 N660N/S); test: GI50 fold-change, resistant clone #64 vs parental; type: cell-based, human; details: Clone #64, DLD-1, resistance generated with compound 4, A1979G/A / N660N/S; 72 hrs
Method: as §1

[12] = test system: p97 inhibitor resistant cell lines; test: GI50 fold-change in p97 inhibitor resistant cell lines (overall); type: cell-based, human; details: all resistant cell lines of Table 1, in words
Method: as §1

SMILES	Fold Change in GI50 Compared to Parental Cell Line [1] [fold]	Fold Change in GI50 Compared to Parental Cell Line [2] [fold]	Fold Change in GI50 Compared to Parental Cell Line [3] [fold]	Fold Change in GI50 Compared to Parental Cell Line [4] [fold]	Fold Change in GI50 Compared to Parental Cell Line [5] [fold]	Fold Change in GI50 Compared to Parental Cell Line [6] [fold]	Fold Change in GI50 Compared to Parental Cell Line [7] [fold]	Fold Change in GI50 Compared to Parental Cell Line [8] [fold]	Fold Change in GI50 Compared to Parental Cell Line [9] [fold]	Fold Change in GI50 Compared to Parental Cell Line [10] [fold]	Fold Change in GI50 Compared to Parental Cell Line [11] [fold]	fold-change in GI50 for the p97 inhibitor resistant cell lines [12]
Cc1cc2c(C(N)=O)cccc2n1-c1nc2c(c(NCc3ccccc3)n1)COCC2 [Compound 4, 1-[4-(benzylamino)-5H,7H,8H-pyrano[4,3-d]pyrimidin-2-yl]-2-methyl-1H-indole-4-carboxamide]	20.0	3.1	16.5	7.1	1.8	18.7	4.6	4.8	5.9	3.7	1.2	–
CC(C)C[C@H](NC(=O)[C@H](Cc1ccccc1)NC(=O)c1cnccn1)B(O)O [Compound 1, [(1R)-3-methyl-1-[(2S)-3-phenyl-2-(pyrazin-2-ylformamido)propanamido]butyl]boronic acid, reference compound]	1.0	1.0	0.9	0.9	0.8	1.0	0.9	1.0	0.8	0.8	0.7	little fold-change in GI50
